The values below come from ChEMBL document CHEMBL1933015, “Synthesis and evaluation of novel prodrugs of caspase inhibitors” (Bioorg Med Chem Lett, 2012).

Some results are limits rather than exact numbers.

A short description of data set [1]: Oral bioavailability in Sprague-Dawley rat at 10 mg/kg. The data set is classed as ADME, organism-based. As to conditions: in vivo.
Data set [2] is described as follows: AUC (0 to infinity) in Sprague-Dawley rat at 10 mg/kg, iv. Type of data set: ADME, organism-based. Set-up: time infinity, dose 10 mg/kg, route intravenous. The note with it: plasma.
Data set [3] is described as follows: Clearance in Sprague-Dawley rat at 10 mg/kg, iv. The data set is classed as ADME, organism-based. More on the design: dose 10 mg/kg, route intravenous. As to conditions: in vivo.
Data set [4] is described as follows: Half life in Sprague-Dawley rat at 10 mg/kg, po. Type of data set: ADME, organism-based. More on the design: dose 10 mg/kg, route oral. As to conditions: in vivo.
Data set [5] can be described thus: AUC (0 to infinity) in Sprague-Dawley rat at 10 mg/kg, po. Type of data set: ADME, organism-based. More on the design: time infinity, dose 10 mg/kg, route oral. The note with it: plasma.
Data set [6] in a line: Tmax in Sprague-Dawley rat at 10 mg/kg, po. Type of data set: ADME, organism-based. Set-up: dose 10 mg/kg, route oral. As to conditions: in vivo.
The nature of data set [7]: Half life in Sprague-Dawley rat at 10 mg/kg, iv. The data set is classed as ADME, organism-based. Set-up: dose 10 mg/kg, route intravenous. As to conditions: in vivo.
Data set [8] can be described thus: Permeability from basal to apical side across human Caco2 cells. As to conditions: Caco-2, read-out: permeability. The data set is classed as ADME, cell-based. For orientation: Caco-2 monolayers are a common model of the intestinal barrier.
The nature of data set [9]: Permeability from apical to basal side across human Caco2 cells. Type of data set: ADME, cell-based. As to conditions: Caco-2, read-out: permeability.
A short description of data set [10]: Half life in buffer at pH 7.4 assessed as prodrug conversion. Type of data set: physicochemical.
Data set [11] in a line: Half life in buffer at pH 4 assessed as prodrug conversion. The data set is classed as physicochemical.
Data set [12] has as its system Plasma. Nature of the data set: Half life in human plasma assessed as around 50% of prodrug is remaining. The data set is classed as ADME, cell-free.
For data set [13], the system named is Plasma. Nature of the data set: Half life in rat plasma assessed as < 50% of prodrug is remaining. Type of data set: ADME, cell-free.
The nature of data set [14]: Half life in buffer at pH 9 assessed as prodrug conversion. Type of data set: physicochemical.
Data set [15] is described as follows: Half life in buffer at pH 6 assessed as prodrug conversion. Type of data set: physicochemical.
Data set [16] has as its system Plasma. Nature of the data set: Half life in rat plasma assessed as < 10% of prodrug is remaining. The data set is classed as ADME, cell-free.
The test system of data set [17] is Rattus norvegicus. Nature of the data set: Oral bioavailability in Sprague-Dawley rat assessed as VX166 level at 10 mg/kg. The data set is classed as ADME, organism-based. The note with it: in vivo.
Data set [18] relates to Rattus norvegicus. In words: Half life in Sprague-Dawley rat assessed as prodrug conversion to VX166 at 10 mg/kg, po. The data set is classed as ADME, organism-based. Set-up: dose 10 mg/kg, route oral. The note with it: in vivo.
In data set [19] the test system is Rattus norvegicus. Nature of the data set: Tmax in Sprague-Dawley rat assessed as VX166 level at 10 mg/kg, po. The data set is classed as ADME, organism-based. Set-up: dose 10 mg/kg, route oral. The note with it: in vivo.
Data set [20] concerns Plasma. Nature of the data set: Half life in human plasma assessed as < 50% of prodrug is remaining. Type of data set: ADME, cell-free.
The subject of data set [21] is Rattus norvegicus. Nature of the data set: AUC (0 to infinity) in Sprague-Dawley rat assessed as VX166 level in plasma at 10 mg/kg, po. The data set is classed as ADME, organism-based. Set-up: time infinity, dose 10 mg/kg, route oral. As to conditions: in vivo.

The term bioavailability denotes dose-corrected exposure relative to a reference, in per cent. Usually AUC(0-inf) stands for total exposure, with the tail of the curve extrapolated. In general, clearance refers to a measure of how efficiently the substance is removed, as volume per time. A low value points to inefficient removal. A word on the half-life: it is the time in which the quantity being followed falls by half. Low values mean fast loss, high ones slow loss. By Tmax is commonly meant the time at which the peak concentration occurs. For the compound `CC[C@@H](C(=O)N[C@@H](CC(=O)O)C(=O)COc1c(F)c(F)cc(F)c1F)n1cccc(NC(=O)OC)c1=O`, the bioavailability in data set [1] came to 14%. Also, the AUC(0-inf) in data set [2] worked out at 6160 ng·h/mL; in data set [5] it was 860 ng·h/mL. Also, the clearance in [3] is 22.3 mL/min/kg. The results for the half-life in [4] and in data set [7] were 91.8 min and 31.8 min, respectively. Moreover, the Tmax in [6] was determined as 19.8 min.

As to `C[C@H](NC(=O)C(=O)Nc1ccccc1C(C)(C)C)C(=O)N[C@@H](CC(=O)O)C(=O)COc1c(F)c(F)cc(F)c1F` [EMRICASAN], the Papp B→A in data set [8] was 10 ×10⁻⁶ cm/s. In addition, in data set [9], the Papp A→B came to 0.5 ×10⁻⁶ cm/s.

For the compound `C[C@H](NC(=O)C(=O)Nc1ccccc1C(C)(C)C)C1=N[C@H]2CC(=O)O[C@@]2(COc2c(F)c(F)cc(F)c2F)O1`, the t1/2 in [10] was 1780 min; in [11], 72 min; in the data set with Plasma [12], 1 min; in the data set with Plasma [13], under 1 min; in [14], 438 min; in data set [15], 1490 min. For the same compound, the Papp B→A in data set [8] came out at 10 ×10⁻⁶ cm/s. The Papp A→B in data set [9] turned out to be 0.5 ×10⁻⁶ cm/s.

For the compound `O=C1C[C@@H]2N=C(c3cccc4ccccc34)O[C@]2(CF)O1`, the t1/2 in [10] is 240 min; in [11], 864 min; in the data set with Plasma [12], 1 min; in the data set on Plasma [16], under 1 min; in data set [14], 48 min; in data set [15] it was 792 min.

Usually AUC stands for the area under the concentration-time curve, a measure of exposure. Consider `CC[C@@H](C1=N[C@H]2CC(=O)O[C@@]2(COc2c(F)c(F)cc(F)c2F)O1)n1cccc(NC(=O)OC)c1=O`, for which, in the data set on Rattus norvegicus [17], the F came to 27%. For the same compound, the t1/2 with Rattus norvegicus [18] is 58.2 min; in data set [10] it was 192 min; in data set [11], 108 min; in the data set on Plasma [16], under 1 min; in data set [14] it was 42 min; in the data set with Plasma [20], under 1 min. Also, in data set [15], the t1/2 was 522 min. The Tmax in the data set with Rattus norvegicus [19] is 37.8 min. Besides, the AUC in the data set with Rattus norvegicus [21] was 1660 ng·h/mL.
